According to publication PMC4168215, “Perampanel Inhibition of AMPA Receptor Currents in Cultured Hippocampal Neurons” (PLoS ONE, 2014):
Several values for one entry are separate records, joined by “and”; a condition that tells them apart may be missing. Equal entries are not always repeated. Where two headings read alike, the source gives them in different places.

How the values were obtained:
AMPA receptors = settings: rat forebrain membranes; earlier radioligand binding studies; cited from earlier work
AMPA receptor [1] = experiment: Whole-cell voltage-clamp recording of AMPA-evoked currents in cultured hippocampal neurons; format: cell-based, rat
Procedure: (§1) Primary hippocampal neuronal cultures were prepared as previously described. In brief, timed pregnant rats Sprague-Dawley rats (Charles River Laboratories International, Wilmington, MA, USA) were anesthetized with isoflurane. E18 embryos were obtained and the hippocampi were dissected and treated in Hank’s balanced salt solution (HBSS; Invitrogen, Carlsbad, CA, USA) with trypsin (0.03%, Sigma-Aldrich, St. Louis, MO) for 20 min at 37°C. After inactivation of trypsin with neuronal medium (Neurobasal medium; Invitrogen, Life Technologies, Grand Island, NY, USA) supplemented with NS21, 0.5 mM glutamine, 10 mM HEPES) plus 5% horse serum (HS; Invitrogen), the tissue was washed twice with HBSS, and triturated with a fire-polished Pasteur pipette. After non-dissociated pieces of tissue settled, cells in the supernatant were collected by centrifugation (1100 rpm at 200×g for 3.5 min), re-suspended in neuronal medium plus 5% horse serum, counted, and plated on coverslips (Warner Instruments, Hamden, CT, USA) coated with 0.1% (w/v) poly-L-lysine (Peptides International, Louisville, KY, USA). The cell density was 3×10^4 cm^−2 in plating medium. After 4 h, the medium was replaced with serum-free neuronal medium. Cells were grown in a humidified environment of 95% air/5% CO2 at 37°C. One third of medium was changed after 5 days in vitro (DIV) and weekly thereafter.
(§2) Whole-cell voltage clamp experiments were performed 7–25 days after plating. […]. The pipette solution contained 145 CsCl, 0.1 mM CaCl2, 2 mM MgCl2, 1 mM EGTA, and 5 mM HEPES. For NMDA-mediated currents, recordings were made in a bath solution containing 135 mM NaCl, 5 mM KCl, 0.2 mM CaCl2, 10 mM HEPES, 1 µM TTX, 10 µM bicuculline, 1 µM strychnine, 10 µM NBQX, 3 µM glycine. The pipette solution contained 145 CsCl, 0.1 mM CaCl2, 1 mM EGTA, and 5 mM HEPES.
(§3) Recordings were made with an Axopatch 200B patch-clamp amplifier (Axon Instruments, Foster City, CA, USA). Whole-cell currents were filtered at 2 kHz and digitized at 10 kHz. All neurons were voltage-clamped at −60 mV. The following drugs dissolved in bath solution were applied using a fast perfusion system (VC^3-8XP, ALA Scientific Instrument, NY, USA): kainate (3, 10, 100 µM), AMPA (10, 30, 100 µM), NMDA (10, 100 µM), and perampanel (0.01–30 µM). All were from Sigma-Aldrich except perampanel, which was from Eisai Inc. Solution reservoirs contained the drugs separately or the combination of an agonist (kainate, AMPA or NMDA) plus perampanel. Each solution reservoir was connected to a pinch valve of the 8-channel VC^3-8XP perfusion system, which fed solution to an 8-to-1 mini-manifold (MP-8, Warner Instruments, Hamden, CT) that has a dead-volume of 3.5 µl when switching between solutions. Only one perfusion line was open at a time. The opening speed was 15–20 ms. The command for switching among perfusion lines was generated by the pClamp software and delivered to the control box of the perfusion system via a TTL connection.

AMPA receptor [2] = experiment: Whole-cell voltage-clamp recording of kainate-evoked (AMPA receptor) currents in cultured hippocampal neurons; format: cell-based, rat; settings: for percent inhibition of kainate-evoked current: sample current
Procedure: as §1, §2, §3

NMDA receptor [3] = experiment: Whole-cell voltage-clamp recording of NMDA-evoked currents in cultured hippocampal neurons; format: cell-based, rat
Procedure: as §1, §2
Recordings were made with an Axopatch 200B patch-clamp amplifier (Axon Instruments, Foster City, CA, USA). Whole-cell currents were filtered at 2 kHz and digitized at 10 kHz. All neurons were voltage-clamped at −60 mV. […]

AMPA receptor [4] = biological target: AMPA receptor; set-up: method as in PMID 21635236; settings: cultured rat cortical neurons; read-out: IC50, inhibition of AMPA-induced Ca2+ influx; cited from earlier work
AMPA receptor [5] = settings: CA1 area, rat hippocampal slices; read-out: IC50, inhibition of AMPA receptor component of the field response; cited from earlier work
NMDA receptor [6] = settings: CA1 area, rat hippocampal slices; cited from earlier work
kainate receptor = settings: CA1 area, rat hippocampal slices; cited from earlier work
NMDA receptor [7] = settings: 30 µM; studies to date; cited from earlier work
AMPA receptor [8] = settings: cited from earlier work
[9] = 1 µM perampanel, 10, 30 and 100 µM AMPA
[10] = 3 µM perampanel and 100 µM AMPA applied simultaneously
[11] = 30 µM perampanel preapplied 5 s then coapplied, 10 and 100 µM NMDA

CCN(CC)Cc1cccc(/C=C/c2nc3ccc(F)cc3c(=O)n2-c2ccccc2Cl)n1 [CP-465,022]
displacement of [3H]perampanel binding (AMPA receptors): displaced

N#Cc1ccccc1-c1cc(-c2ccccn2)cn(-c2ccccc2)c1=O [Perampanel, 2-(2-oxo-1-phenyl-5-pyridin-2-yl-1,2-dihydropyridin-3-yl)benzonitrile]
effect on decay time constant of AMPA-evoked currents (AMPA receptor [1]; [9]): did not alter
effect on peak to late ratio of AMPA-evoked currents (AMPA receptor [1]; [9]): not statistically different from control
effect on rise time constant of AMPA-evoked currents (AMPA receptor [1]; [9]): did not alter
reduction of peak AMPA response (AMPA receptor [1]; [10]): 17%
time to full block (AMPA receptor [1]; [10]): ≤ 5 s
reduction in the peak and late AMPA responses (AMPA receptor [1]; 3 µM perampanel started 5 s before 100 µM AMPA): ~60%
time constant (τ) of inhibition of AMPA receptor currents (AMPA receptor [1]; 3 µM perampanel, currents evoked by AMPA and kainate): ~1 s
time over which block develops without preexposure (AMPA receptor [1]; 3 µM perampanel, kainate- and AMPA-evoked currents (Fig. 3)): ~3 s
IC50 (AMPA receptor [1]; 10 µM AMPA, holding −60 mV, perampanel preapplied 5 s then coapplied, read-out: AMPA Response IC50, Peak Current): 0.4 µM
IC50 (AMPA receptor [1]; 10 µM AMPA, late current at end of 5 s AMPA perfusion, read-out: AMPA Response IC50, Late Current): 0.4 µM
IC50 (AMPA receptor [1]; 30 µM AMPA, holding −60 mV, perampanel preapplied 5 s then coapplied, read-out: AMPA Response IC50, Peak Current): 0.8 µM
IC50 (AMPA receptor [1]; 30 µM AMPA, late current at end of 5 s AMPA perfusion, read-out: AMPA Response IC50, Late Current): 0.9 µM
Kd (AMPA receptor [1]; 100 µM AMPA-evoked currents, read-out: kinetically determined binding affinity (KD = k–1/k1)): 3.9 µM
mean off rate determined from the τoff values (AMPA receptor [1]; 100 µM AMPA, 1, 3 and 10 µM perampanel): 0.68 s⁻¹
unbinding rate constant k–1 (rate of unblock, dissociation rate) (AMPA receptor [1]; 100 µM AMPA, 1, 3 and 10 µM perampanel, intercept of kapp vs concentration): 0.58 s⁻¹
binding rate constant k1 (rate of block, association rate) (AMPA receptor [1]; 100 µM AMPA, 1, 3 and 10 µM perampanel, slope of kapp vs concentration): 1.5×10^5 M^−1 s^−1 and 1.51±0.10×10^5 M^−1 s^−1
IC50 (AMPA receptor [1]; 100 µM AMPA, holding −60 mV, perampanel preapplied 5 s then coapplied, read-out: AMPA Response IC50, Peak Current): 0.9 µM
IC50 (AMPA receptor [1]; 100 µM AMPA, late current at end of 5 s AMPA perfusion, read-out: AMPA Response IC50, Late Current): 1.2 µM
percent inhibition of kainate-evoked current (AMPA receptor [2]; 0.1 µM perampanel, 100 µM kainate): 20%
percent inhibition of kainate-evoked current (AMPA receptor [2]; 0.3 µM perampanel, 100 µM kainate): 41%
percent inhibition of kainate-evoked current (AMPA receptor [2]; 1 µM perampanel, 100 µM kainate): 55%
IC50 (AMPA receptor [2]; 3 µM kainate, holding −60 mV, perampanel preapplied 5 s then coapplied, read-out: Kainate Response IC50): 0.58 µM
time constant (τ) of development of block (AMPA receptor [2]; 3 µM perampanel started 5 s after onset of 100 µM kainate): 1.2 ± 0.1 s
reduction of the kainate-induced current (AMPA receptor [2]; 3 µM perampanel started 5 s before kainate (100 µM), one neuron): ~73%
time constant (τ) of recovery from block (AMPA receptor [2]; 3 µM perampanel, 100 µM kainate, after termination of perampanel): 3.3 ± 1.5 s
percent inhibition of kainate-evoked current (AMPA receptor [2]; 3 µM perampanel, 100 µM kainate): 80%
IC50 (AMPA receptor [2]; 10 µM kainate, holding −60 mV, perampanel preapplied 5 s then coapplied, read-out: Kainate Response IC50): 0.51 µM
IC50 (AMPA receptor [2]; 100 µM kainate, holding −60 mV, perampanel preapplied 5 s then coapplied, read-out: Kainate Response IC50): 0.58 µM
IC50 (AMPA receptor [2]; overall value, similar at all kainate concentrations (3–100 µM), read-out: IC50, block of non-desensitizing kainate-evoked currents): 0.56 µM
effect on mean amplitude of late NMDA-evoked current (NMDA receptor [3]; [11]): failed to affect
effect on mean amplitude of peak NMDA-evoked current (NMDA receptor [3]; [11]): failed to affect
effect on NMDA receptor currents (NMDA receptor [3]; summary statement): did not affect
IC50 (AMPA receptor [4]): 0.093 µM
IC50 (AMPA receptor [5]): 0.23 µM
effect on NMDA receptor component of the field response (NMDA receptor [6]): without affecting
effect on kainate receptor component of the field response (kainate receptor): without affecting
inhibition of NMDA responses (NMDA receptor [7]): only minimally inhibits

CC1=NN=C(c2ccc(N)cc2)c2cc3c(cc2C1)OCO3 [GYKI 52466, 1-(4-amino-phenyl)-4-methyl-7,8-methyl-endioxyl-5H-2,3-benzodiaze pine]
displacement of [3H]perampanel binding (AMPA receptors): displaced
inhibition of steady AMPA receptor current (AMPA receptor [8]; 30 µM): ~50%
time in which block occurs (AMPA receptor [8]; 30 µM): several hundred milliseconds
association rate (AMPA receptor [8]): 160000 M⁻¹ s⁻¹
dissociation rate (AMPA receptor [8]): 3.2 s⁻¹
